Test results taken from US11897883B1, “Pyrrolo[3,2-c][1,6]naphthyridine-2-carboxylic acid compounds as CK2 inhibitors” (KING FAISAL UNIVERSITY, priority 2023, dated 2024).

Legend:
MIAPaCa-2 (pancreas) = experiment: In vitro cytotoxic activity MTT assay, MIAPaCa-2; assay type: cell-based; settings: Homo sapiens, MIA PaCa-2, 96 hours exposure, read-out: IC50, concentration eliciting a 50% inhibition of cell proliferation
Procedure: (§1) Compounds 1-16 were screened for their in vitro cytotoxic activity utilizing a 3-(4,5-dimethyl-thiazol-2-yl)-2,5-diphenyltetrazolium bromide (MTT) assay against selected cancer human cell lines consisting of PC3 (prostate), HCT116 (colon), A375 (melanoma), H1299 (lung), MIAPaCa-2 (pancreas), HL60 (leukemia), MCF7 (breast), MDA-MB-231 (breast) (T. Mosmann, J. Immunol. Meth., 1983, 65, 55-63). The cells were cultured at 37° C. in RMPI1640 medium supplemented with 10% fetal bovine serum, 50 IU/mL penicillin, and 50 μg/mL streptomycin in a 5% CO2 incubator. All cells were sub-cultured 3 times/week by trypsinisation. Viable cells were seeded and allowed to adhere for 12 h before a test drug was added in 96-well plates at an initial density of 1.0×10^5 cells/mL. Tumour cell lines were separately exposed to various concentrations of the tested compounds followed by incubation at a temperature of 37° C. during 96 h inside a medium of fresh RMPI 1640. Cells were subsequently incubated at 37° C. using MTT at 0.5 mg/mL during 4 h. After removal of supernatant, formazan crystals were dissolved in isopropanol and the optical density was measured at 570 nm. CX-4945 was used as a positive control.

PC3 (prostate) = experiment: In vitro cytotoxic activity MTT assay, PC3; assay type: cell-based; settings: Homo sapiens, 96 hours exposure, read-out: IC50, concentration eliciting a 50% inhibition of cell proliferation
Procedure: as §1

A375 (melanoma) = experiment: In vitro cytotoxic activity MTT assay, A375; assay type: cell-based; settings: Homo sapiens, A-375, 96 hours exposure, read-out: IC50, concentration eliciting a 50% inhibition of cell proliferation
Procedure: as §1

H1299 (lung) = experiment: In vitro cytotoxic activity MTT assay, H1299; assay type: cell-based; settings: Homo sapiens, NCI-H1299, 96 hours exposure, read-out: IC50, concentration eliciting a 50% inhibition of cell proliferation
Procedure: as §1

MCF7 (breast) = experiment: In vitro cytotoxic activity MTT assay, MCF7; assay type: cell-based; settings: Homo sapiens, 96 hours exposure, read-out: IC50, concentration eliciting a 50% inhibition of cell proliferation
Procedure: as §1

[1] = molecular target: T1, recombinant human CK2 (RRββ-holoenzyme) (Homo sapiens, UniProt P68400); experiment: CK2 Kinase Assay (33P-ATP, substrate peptide RRRDDDSDDD); assay type: biochemical; settings: final ATP 15 μM, 10 min at 30 °C; read-out: protein kinase CK2 IC50
T1 construct: purchased Millipore
Procedure: CK2 Kinase Assay was conducted using the protocol as described in Pierre F. et al.; J. Med. Chem. 2011, 54, 635-654. The tested compounds in aqueous solution were added at a volume of 10 μL to a reaction mixture comprising 10 μL of assay dilution buffer (ADB; 20 mM MOPS, pH 7.2, 25 mM β-glycerol phosphate, 5 mM EGTA, 1 mM sodium orthovanadate, and 1 mM dithiothreitol), 10 μL of substrate peptide (RRRDDDSDDD, dissolved in ADB at a concentration of 1mM), 10 μL of recombinant human CK2 (RRββ-holoenzyme, 25 ng dissolved in ADB; Millipore). Reactions were initiated by the addition of 10 μL of ATP solution (90% 75 mMMgCl2, 75 μM ATP (final ATP concentration:15 μM) dissolved in ADB; 10% [γ-33P] ATP (stock 1 mCi/100 μL; 3000 Ci/mmol (Perkin-Elmer) and maintained for 10 min at 30 ° C. The reactions were quenched with 100 μL of 0.75% phosphoric acid and then transferred to and filtered through a phosphor cellulose filter plate (Millipore). After washing each well five times with 0.75% phosphoric acid, the plate was dried under vacuum for 5 min and, following the addition of 15 μL of scintillation fluid to each well, the residual radioactivity was measured using a Wallac luminescence counter. The IC50 values were derived from eight concentrations of test inhibitors.

HL60 (leukemia) = experiment: In vitro cytotoxic activity MTT assay, HL60; assay type: cell-based; settings: Homo sapiens, HL-60, 96 hours exposure, read-out: IC50, concentration eliciting a 50% inhibition of cell proliferation
Procedure: as §1

HCT116 (colon) = experiment: In vitro cytotoxic activity MTT assay, HCT116; assay type: cell-based; settings: Homo sapiens, HCT-116, 96 hours exposure, read-out: IC50, concentration eliciting a 50% inhibition of cell proliferation
Procedure: as §1

MDA-MB-231 (breast) = experiment: In vitro cytotoxic activity MTT assay, MDA-MB-231; assay type: cell-based; settings: Homo sapiens, 96 hours exposure, read-out: IC50, concentration eliciting a 50% inhibition of cell proliferation
Procedure: as §1

T1 sequence (P68400 whole entry): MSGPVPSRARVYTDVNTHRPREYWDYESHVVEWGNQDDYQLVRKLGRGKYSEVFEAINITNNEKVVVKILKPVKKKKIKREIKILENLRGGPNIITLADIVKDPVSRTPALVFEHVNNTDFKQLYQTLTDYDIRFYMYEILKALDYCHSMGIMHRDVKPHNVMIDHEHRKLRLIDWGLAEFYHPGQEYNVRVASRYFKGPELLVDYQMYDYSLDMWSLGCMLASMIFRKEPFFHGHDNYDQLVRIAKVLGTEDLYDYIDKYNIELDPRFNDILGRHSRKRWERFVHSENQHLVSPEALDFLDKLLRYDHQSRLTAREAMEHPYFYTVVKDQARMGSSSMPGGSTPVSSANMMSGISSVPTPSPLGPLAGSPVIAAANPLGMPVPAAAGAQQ
T1 sequence (P67870 whole entry partner): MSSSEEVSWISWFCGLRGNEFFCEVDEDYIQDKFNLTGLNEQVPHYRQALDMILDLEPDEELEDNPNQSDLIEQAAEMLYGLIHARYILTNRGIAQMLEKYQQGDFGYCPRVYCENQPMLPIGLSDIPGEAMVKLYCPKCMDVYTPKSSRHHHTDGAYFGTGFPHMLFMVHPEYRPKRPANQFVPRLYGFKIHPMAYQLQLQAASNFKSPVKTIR

Q: With O=C(O)c1cc2c(Nc3cccc(Cl)c3)nc3ccncc3c2[nH]1 [Compound 1, 4-((3-chlorophenyl)amino)-1H-pyrrolo[3,2-c][1,6]naphthyridine-2-carboxylic acid] as the compound, how does the IC50 (MIAPaCa-2 (pancreas)) read?
A: 1100 nM

Q: What about the IC50 (PC3 (prostate)) of the same compound?
A: 2100 nM

Q: And the IC50 (A375 (melanoma))?
A: 2900 nM

Q: And the IC50 (H1299 (lung))?
A: 1400 nM

Q: What about the IC50 (MCF7 (breast)) of the same compound?
A: 4.2 µM

Q: What about the IC50 [1] of the same compound?
A: 26 nM

Q: And the IC50 (HL60 (leukemia))?
A: 2500 nM

Q: And the IC50 (HCT116 (colon))?
A: 1300 nM

Q: What about the IC50 (MDA-MB-231 (breast)) of the same compound?
A: 3.7 µM
